pEC50: −log10 of the molar value.

This assay deals with T1, human mGluR2 receptor (Homo sapiens, UniProt Q14416).
T1 construct: expressed in transfected cells
T1 sequence (Q14416 19-872): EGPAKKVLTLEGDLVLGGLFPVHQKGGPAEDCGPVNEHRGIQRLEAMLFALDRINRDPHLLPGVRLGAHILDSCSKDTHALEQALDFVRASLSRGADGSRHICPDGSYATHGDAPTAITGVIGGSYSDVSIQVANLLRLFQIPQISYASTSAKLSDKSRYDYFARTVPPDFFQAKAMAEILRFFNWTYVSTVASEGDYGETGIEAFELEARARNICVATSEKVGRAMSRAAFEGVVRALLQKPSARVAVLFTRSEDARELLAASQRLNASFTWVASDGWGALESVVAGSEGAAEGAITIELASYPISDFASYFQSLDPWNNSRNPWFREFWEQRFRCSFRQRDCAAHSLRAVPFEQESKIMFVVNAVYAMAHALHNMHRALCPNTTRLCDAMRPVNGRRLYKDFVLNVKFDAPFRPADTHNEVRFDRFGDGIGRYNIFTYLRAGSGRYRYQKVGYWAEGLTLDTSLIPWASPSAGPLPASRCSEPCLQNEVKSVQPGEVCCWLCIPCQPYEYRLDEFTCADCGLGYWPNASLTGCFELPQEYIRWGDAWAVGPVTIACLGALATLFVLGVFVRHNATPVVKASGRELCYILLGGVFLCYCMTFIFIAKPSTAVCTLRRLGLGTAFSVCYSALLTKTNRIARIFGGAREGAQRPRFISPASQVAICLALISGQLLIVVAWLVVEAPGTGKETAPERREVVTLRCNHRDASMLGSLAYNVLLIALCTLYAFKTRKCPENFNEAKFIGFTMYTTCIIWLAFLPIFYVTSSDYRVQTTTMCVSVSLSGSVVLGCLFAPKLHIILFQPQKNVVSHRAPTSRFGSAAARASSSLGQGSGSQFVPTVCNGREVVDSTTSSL
The assay is described as follows: [35S]-GTPγS binding assay of mGluR2 receptor activation. Type of assay: biochemical. The note with it: membranes from CHO cells stably expressing human mGluR2; 1 μM glutamate. As to the method: A [^35S]-GTPγS binding assay was used to functionally assay mGluR2 receptor activation. The allosteric activator activity of compounds at the human mGluR2 receptor were measured using a [^35S]-GTPγS binding assay with membranes prepared from CHO cells which stably express the human mGluR2. The assay is based upon the principle that agonists bind to G-protein coupled receptors to stimulate GDP-GTP exchange at the G-protein. Since [^35S]-GTPγS is a non-hydrolyzable GTP analog, it can be used to provide an index of GDP-GTP exchange and, thus, receptor activation. The GTPγS binding assay therefore provides a quantitative measure of receptor activation.
Membranes were prepared from CHO cells stably transfected with human mGluR2. Membranes (30 μg protein) were incubated with test compound (3 nM to 300 μM) for 15 minutes at room temperature prior to the addition of 1 μM glutamate, and incubated for 30 min at 30° C. in 500 μl assay buffer (20 mM HEPES, 100 mM NaCl, 10 mM MgCl2), containing 30 μM GDP and 0.1 nM [^35S]-GTPγS (1250 Ci/mmol). Reactions were carried out in triplicate in 2 ml polypropylene 96-well plates. Reactions were terminated by vacuum filtration using a Packard 96-well harvester and Unifilter-96, GF/B filter microplates. The filter plates were washed 4×1.5 ml with ice-cold wash buffer (10 mM sodium phosphate buffer, pH 7.4). The filter plates were dried and 35 μl of scintillation fluid (Microscint 20) was added to each well. The amount of radioactivity bound was determined by counting plates on the Packard TopCount. Data was analyzed using GraphPad Prism, and EC50 and Emax values (relative to the maximum glutamate effect) were calculated using non-linear regression.
On to `COc1cc(N2CCC(N(C)C)C2)cc2c1C(=O)N(Cc1ccc(OC(F)(F)F)cc1)C2` (stereo not shown) [Example 126, 5-(3- Dimethylaminopyrrolidin-1-yl)-7-methoxy-2-(4-trifluoromethoxy-benzyl)-2,3-dihydroisoindol-1-one], for which the pEC50 was 5.60.
As for `CCN1CCN(c2cc3c(c(OC)c2)C(=O)N(Cc2ccc(OC(F)(F)F)cc2)C3)CC1` [Example 127, 5-(4-Ethylpiperazin-1-yl)-7-methoxy-2-(4-trifluoromethoxy-benzyl)-2,3-dihydroisoindol-1-one], the pEC50 was 5.33.
With `COc1cc(N2CCCN(C)CC2)cc2c1C(=O)N(Cc1ccc(OC(F)(F)F)cc1)C2` [Example 128, 7-Methoxy-5-(4-methyl-[1,4]-diazepan-1-yl)-2-(4-triflouoromethoxy-benzyl)-2,3-dihydro-isoindol-1-one], the negative logarithm of the EC50 (pEC50) was 5.30.
As for `COc1cc(N2CCN3CCCC3C2)cc2c1C(=O)N(Cc1ccc(Cl)cc1)C2` (stereo not shown) [Example 129], the pEC50 was 5.20.
The molecule `Cc1cc(N2CCC(N(C)C)C2)cc2c1C(=O)N(Cc1ccc(Oc3ccccc3)cc1)C2` (stereo not shown) [Example 130, 5-(3-Dimethylamino-pyrrolidin-1-yl)-7-methyl-2-(4-phenoxy-benzyl)-2,3-dihydro-isoindol-1-one] had a pEC50 of 7.00.
The molecule `CN1CCN(c2cc(Cl)c3c(c2)CN(Cc2ccc(OC(F)(F)F)cc2)C3=O)CC1` [Example 131, 7-Chloro-5-(4-methyl-piperizin-1-yl)-2-(4-trifluoromethoxy-benzyl)-2,3-dihydro-isoindol-1-one] gave a pEC50 of 6.21.
Consider `O=C1c2c(Cl)cc(N3CCN4CCCC4C3)cc2CN1Cc1ccc(OC(F)(F)F)cc1` (stereo not shown) [Example 132, 7-Chloro-5-(hexahydro-pyrrolo[1,2-a]pyrazin-2-yl)-2-(4-trifluoromethoxy-benzyl)-2,3-dihydro-isoindol-1-one], for which the pEC50 is 6.32. The pEC50 values of the last two molecules are within 0.2 log units of each other.
Take `CN1CCN(c2cc(Cl)c3c(c2)CN(Cc2ccc(Cl)cc2)C3=O)CC1` [Example 133, 7-Chloro-2-(4-chlorobenzyl)-5-(4-methyl-piperazin-1-yl)-2,3-dihydroisoindol-1-one]: the pEC50 was 6.23.
As for `O=C1c2c(Cl)cc(N3CCN4CCCC4C3)cc2CN1Cc1ccc(Cl)cc1` (stereo not shown) [Example 134, 7-Chloro-2-(4-chloro-benzyl)-5-(hexahydro-pyrrolo[1,2-a]pyrazin-2-yl)-2,3-dihydro-isoindol-1-one], the pEC50 was 6.21.
As to `CN(C)C1CCN(c2cc(Cl)c3c(c2)CN(Cc2ccc(Cl)cc2)C3=O)C1` (stereo not shown) [Example 135, 7-Chloro-2-(4-chloro-benzyl)-5-(3-dimethylamino-pyrolidin-1-yl)-2,3-dihydro-isoindol-1-one], the pEC50 was 6.21.
`Cc1cc(N2CCN(Cc3ccncc3)CC2)cc2c1C(=O)N(Cc1ccc(OC(F)(F)F)cc1)C2` [Example 136, 7-Methyl-5-(4-pyridin-4-ylmethyl-piperazin-1-yl)-2-(4-trifluoromethoxy-benzyl)-2,3-dihydro-isoindol-1-one]: the pEC50 was 6.15.
On to `Cc1cc(N2CCN(CCc3ccncc3)CC2)cc2c1C(=O)N(Cc1ccc(OC(F)(F)F)cc1)C2` [Example 137], for which the pEC50 was 7.00.
The molecule `Cc1cc(N2CCN(Cc3cccnc3)CC2)cc2c1C(=O)N(Cc1ccc(OC(F)(F)F)cc1)C2` [Example 138, 7-Methyl-5-(4-pyridin-3-ylmethyl-piperazin-1-yl)-2-(4-trifluoromethoxy-benzyl)-2,3-dihydro-isoindol-1-one] had a pEC50 of 6.44.
As for `Cc1cc(N2CCN(CC3CCCN(C)C3)CC2)cc2c1C(=O)N(Cc1ccc(OC(F)(F)F)cc1)C2` (stereo not shown) [Example 139, 7-Methyl-5-[4-(1-methyl-piperidin-3-ylmethyl)-piperazin-1-yl]-2-(4-tri-fluoromethoxy-benzyl)-2,3-dihydro-isoindol-1-one], the pEC50 is 5.98.
`Cc1cc(N2CCN(CCN(C)C)CC2)cc2c1C(=O)N(Cc1ccc(OC(F)(F)F)cc1)C2` [Example 140, 5-[4-(2-Dimethylamino-ethyl)-piperazin-1-yl]-7-methyl-2-(4-trifluoro-methoxy-benzyl)-2,3-dihydro-isoindol-1-one] had a pEC50 of 5.92.
`Cc1cc(N2CCN(CCCN(C)C)CC2)cc2c1C(=O)N(Cc1ccc(OC(F)(F)F)cc1)C2` [Example 141, 5-[4-(3-Dimethylamino-propyl)-piperazin-1-yl]-7-methyl-2-(4-trifluoro-methoxy-benzyl)-2,3-dihydro-isoindol-1-one]: the pEC50 is 6.12.
`Cc1cc(N2CCN(Cc3ccncc3)CC2)cc2c1C(=O)N(Cc1ccc(N3CCN(Cc4ccncc4)CC3)cc1)C2` [Example 142, 7-Methyl-5-(4-pyridin-4-ylmethyl-piperazin-1-yl)-2-[4-(4-pyridin-4-ylmethyl-piperazin-1-yl)-benzyl]-2,3-dihydro-isoindol-1-one] showed a pEC50 of 5.39.
The result for `Cc1cc(N2CCN(Cc3ccncc3)CC2)cc2c1C(=O)N(Cc1ccc(Cl)cc1)C2` [Example 143, 2-(4-Chloro-benzyl)-7-methyl-5-(4-pyridin-4-ylmethyl-piperazin-1-yl)-2,3-dihydro-isoindol-1-one] reads 6.38.
In the case of `O=C1c2c(Cl)cc(N3CCN(c4ccncc4)CC3)cc2CN1Cc1ccc(OC(F)(F)F)cc1` [Example 145, 7-Chloro-5-(4-pyridin-4-yl-piperazin-1-yl)-2-(4-trifluoromethoxy-benzyl)-2,3-dihydro-isoindol-1-one], the pEC50 was 6.40.
The molecule `CCCN1CCN(c2ccc3c(c2)CN(Cc2ccc(OC(F)(F)F)cc2)C3=O)CC1` [Example 146, 5-(4-Propyl-piperazin-1-yl)-2-(4-tri-fluoromethoxy-benzyl)-2,3-dihydro-isoindol-1-one] showed a pEC50 of 5.35.
`COCCN1CCN(c2ccc3c(c2)CN(Cc2ccc(OC(F)(F)F)cc2)C3=O)CC1` [Example 147, 5-[4-(2-Methoxy-ethyl)-piperazin-1-yl]-2-(4-trifluoromethoxy-benzyl)-2,3-dihydro-isoindol-1-one]: the pEC50 was 5.18.
Take `O=C(CN1CCN(c2ccc3c(c2)CN(Cc2ccc(OC(F)(F)F)cc2)C3=O)CC1)N1CCCC1` [Example 148, 5-[4-(2-Oxo-2-pyrrolidin-1-yl-ethyl)-piperazin-1-yl]-2-(4-trifluoromethoxy-benzyl)-2,3-dihydro-isoindol-1-one]: the negative logarithm of the EC50 (pEC50) was 5.17.
As for `O=C1c2ccc(N3CCN(c4ccncc4)CC3)cc2CN1Cc1ccc(OC(F)(F)F)cc1` [Example 149, 5-(4-Pyridin-4-yl-piperazin-1-yl)-2-(4-trifluoromethoxy-benzyl)-2,3-dihydro isoindol-1-one], the pEC50 is 5.01.
For `O=C1c2ccc(N3CCOCC3)cc2CN1Cc1ccc(OC(F)(F)F)cc1` [Example 150, 5-Morpholin-4-yl-2-(4-trifluoromethoxy-benzyl)-2,3-dihydro-isoindol-1-one], the pEC50 is 5.06.
For `CN1CN(c2ccccc2)C2(CCN(c3ccc4c(c3)CN(Cc3ccc(OC(F)(F)F)cc3)C4=O)CC2)C1=O` [Example 151, 3-Methyl-8-[1-oxo-2-(4-trifluoromethoxy-benzyl)-2,3-dihydro-1H-isoindol-5-yl]-1-phenyl-1,3,8-triaza-spiro[4.5]decan-4-one] the value was 6.32.
`O=C1c2ccc(N3CCC(CCCc4ccccc4)CC3)cc2CN1Cc1ccc(OC(F)(F)F)cc1` [Example 152, 5-[4-(3-Phenyl-propyl)-piperidin-1-yl]-2-(4-trifluoromethoxy-benzyl)-2,3-dihydro-isoindol-1-one] gave a pEC50 of 6.29.
The molecule `O=C1c2ccc(N3CCC4(CC3)C(=O)N(Cc3ccc(F)cc3)CN4c3ccccc3)cc2CN1Cc1ccc(OC(F)(F)F)cc1` [Example 153, 3-(4-Fluoro-benzyl)-8-[1-oxo-2-(4-trifluoromethoxy-benzyl)-2,3-dihydro-1H-isoindol-5-yl]-1-phenyl-1,3,8-triaza-spiro[4.5] decan-4-one] gave a negative-log EC50 (pEC50) of 5.58.
For `COCCN1CCN(c2cc(Cl)c3c(c2)CN(Cc2ccc(OC(F)(F)F)cc2)C3=O)CC1` [Example 154, 7-Chloro-5-[4-(2-methoxy-ethyl)-piperazin-1-yl]-2-(4-trifluoromethoxy-benzyl)-2,3-dihydro-isoindol-1-one] the value was 6.68; for `O=C1c2c(Cl)cc(N3CCOCC3)cc2CN1Cc1ccc(OC(F)(F)F)cc1` [Example 155, 7-Chloro-5-morpholin-4-yl-2-(4-trifluoromethoxy-benzyl)-2,3-dihydro-isoindol-1-one], 6.28.
In turn, `O=C(CN1CCN(c2cc(Cl)c3c(c2)CN(Cc2ccc(OC(F)(F)F)cc2)C3=O)CC1)N1CCCC1` [Example 156, 7-Chloro-5-[4-(2-oxo-2-pyrrolidin-1-yl-ethyl)-piperazin-1-yl]-2-(4-trifluoromethoxy-benzyl)-2,3-dihydro-isoindol-1-one] showed a pEC50 of 6.49.
The result for `Cc1cc(C2CCNCC2)cc2c1C(=O)N(Cc1ccc(OC(F)(F)F)cc1)C2` [Example 158, 7-Methyl-5-piperidin-4-yl-2-(4-trifluoromethoxy-benzyl)-2,3-dihydro-isoindol-1-one] reads 5.69.

As a reminder, the pEC50 is the EC50 on a negative log10 scale, so that one unit is a factor of ten. Read a low pEC50 as a large EC50.

The record behind these values is patent US7968570B2, “Isoindolone compounds and their use as metabotropic glutamate receptor potentiators” (AstraZeneca AB, priority 2004, dated 2011).
